The values below come from patent US8435978B2, “Substituted sulfonamide compounds” (Gruenenthal GmbH, priority 2006, dated 2013).

In test [1] the target is T1, B1R receptor of the rat (Rattus norvegicus, UniProt P97583).
T1 construct: host or cells: CHO K1 cells (Chinese hamster ovary), stably transfected
T1 sequence (P97583 1-337): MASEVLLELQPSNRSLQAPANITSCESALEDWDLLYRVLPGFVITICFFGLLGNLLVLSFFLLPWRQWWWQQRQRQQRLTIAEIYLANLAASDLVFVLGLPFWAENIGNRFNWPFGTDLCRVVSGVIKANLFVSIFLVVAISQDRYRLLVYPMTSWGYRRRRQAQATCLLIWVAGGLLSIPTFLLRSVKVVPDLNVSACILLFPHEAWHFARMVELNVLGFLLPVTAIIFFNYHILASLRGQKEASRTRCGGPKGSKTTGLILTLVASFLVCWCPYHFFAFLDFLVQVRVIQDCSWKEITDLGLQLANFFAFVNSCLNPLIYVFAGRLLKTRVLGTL
Description: Functional study on the bradykinin receptor 1 (B1R), FLIPR Ca2+ assay, rB1R cells. In kind it is cell-based. Conditions: agonist Des-Arg9-bradykinin 100 nM, % inhibition compared with the maximum achievable inhibition; for inhibition at 10 µM: CHO-K1, test substance 10 μM, read-out: B1R Antagonism, rat [10 μM] % Inhibition. Put shortly:
(§1)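 CHO K1 cells stably expressing human or rat B1R, Fluo-4-loaded; test compound 10 μM added first (activation % vs agonist), then after 10 min 0.5 nM Lys-Des-Arg9-bradykinin (human) or 100 nM Des-Arg9-bradykinin (rat). Ca2+ peak fluorescence by FLIPR; % inhibition relative to maximum achievable inhibition.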

Test [2] addresses T2, human B1R receptor (Homo sapiens, UniProt P46663).
T2 construct: host or cells: CHO K1 cells (Chinese hamster ovary), stably transfected
T2 sequence (P46663 1-353): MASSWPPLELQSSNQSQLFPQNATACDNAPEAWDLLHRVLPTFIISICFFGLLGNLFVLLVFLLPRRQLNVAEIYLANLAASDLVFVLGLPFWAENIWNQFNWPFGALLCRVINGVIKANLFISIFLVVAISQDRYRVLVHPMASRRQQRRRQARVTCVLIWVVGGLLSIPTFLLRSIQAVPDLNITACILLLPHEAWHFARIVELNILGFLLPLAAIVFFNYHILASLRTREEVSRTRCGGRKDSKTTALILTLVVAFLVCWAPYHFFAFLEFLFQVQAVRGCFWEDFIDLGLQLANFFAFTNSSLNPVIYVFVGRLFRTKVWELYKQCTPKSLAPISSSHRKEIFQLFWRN
Description: Functional study on the bradykinin receptor 1 (B1R), FLIPR Ca2+ assay, hB1R cells. In kind it is cell-based. To be noted: agonist Lys-Des-Arg9-bradykinin 0.5 nM, % inhibition compared with the maximum achievable inhibition; for inhibition at 10 µM: CHO-K1, test substance 10 μM, read-out: B1R Antagonism, human [10 μM] % Inhibition. Put shortly: as §1

For `COc1cc(C)c(S(=O)(=O)N2CCCCC2COCC(=O)NCc2ccc(N3CCN(C)CC3)cc2)c(C)c1` (centres unmarked) [Example 434, 2-((1-(4-methoxy-2,6-dimethylphenylsulfonyl)piperidin-2-yl)methoxy)-N-(4-(4-methylpiperazin-1-yl)benzyl)acetamide], the inhibition at 10 µM in test [1] turned out to be 101%; in test [2] it was 104%.
The matching figures for `COc1cc(C)c(S(=O)(=O)N2CCCCC2COCC(=O)NCc2ccccc2N2CCOCC2)c(C)c1` (centres unmarked) [Example 435, 2-((1-(4-methoxy-2,6-dimethylphenylsulfonyl)piperidin-2-yl)methoxy)-N-(2-morpholinobenzyl)acetamide]: 99.6% and 6.23%.
The matching figures for `COc1cc(C)c(S(=O)(=O)N2CCCCC2COCC(=O)Nc2cccc(N3CCOCC3)c2)c(C)c1` (centres unmarked) [Example 436, 2-((1-(4-methoxy-2,6-dimethylphenylsulfonyl)piperidin-2-yl)methoxy)-N-(3-morpholinophenyl)acetamide]: 102% and 39.2%.
Take `COc1cc(C)c(S(=O)(=O)N2CCCCC2COCC(=O)NCc2cccc(N3CCOCC3)c2)c(C)c1` (centres unmarked) [Example 437, 2-((1-(4-methoxy-2,6-dimethylphenylsulfonyl)piperidin-2-yl)methoxy)-N-(3-morpholinobenzyl)acetamide]: the inhibition at 10 µM was determined as 102% in test [1] and 36.1% in test [2].
Taken in the same sequence, the figures for `COc1cc(C)c(S(=O)(=O)N2CCCCC2COCC(=O)Nc2ccc(N3CCOCC3)cc2)c(C)c1` (centres unmarked) [Example 438, 2-((1-(4-methoxy-2,6-dimethylphenylsulfonyl)piperidin-2-yl)methoxy)-N-(4-morpholinophenyl)acetamide] were 100% and 22.1%.
As for `COc1cc(C)c(S(=O)(=O)N2CCCCC2COCC(=O)NCc2ccc(N3CCOCC3)cc2)c(C)c1` (centres unmarked) [Example 439, 2-((1-(4-methoxy-2,6-dimethylphenylsulfonyl)piperidin-2-yl)methoxy)-N-(4-morpholinobenzyl)acetamide], in test [1] (test substance 10 μM, rB1R CHO K1 cells), the “B1R Antagonism, rat [10 μM] % Inhibition” value was 100.94%. In addition, the “B1R Antagonism, human [10 μM] % Inhibition” value in test [2] (test substance 10 μM, hB1R CHO K1 cells) was found to be 48.25%.
Regarding `O=C(COCC1CCCCN1S(=O)(=O)c1c(Cl)cccc1Cl)N1CCN(c2ccccc2F)CC1` (centres unmarked) [Example 442, 2-((1-(2,6-dichlorophenylsulfonyl)piperidin-2-yl)methoxy)-1-(4-(2-fluorophenyl)piperazin-1-yl)ethanone], the inhibition at 10 µM was 98.6% in test [1] and 102% in test [2].
The matching figures for `O=C(COCC1CCCCN1S(=O)(=O)c1c(Cl)cccc1Cl)N1CCC(N2CCCC2)CC1` (centres unmarked) [Example 443, 2-((1-(2,6-dichlorophenylsulfonyl)piperidin-2-yl)methoxy)-1-(4-(pyrrolidin-1-yl)piperidin-1-yl)ethanone]: 99.3% and 104%.
Taken in the same sequence, the figures for `COc1cc(C)c(S(=O)(=O)N2CCCC2COCC(=O)N2CCN(Cc3ccccc3F)CC2)c(C)c1` (centres unmarked) [Example 444, 1-(4-(2-fluorobenzyl)piperazin-1-yl)-2-((1-(4-methoxy-2,6-dimethylphenylsulfonyl)pyrrolidin-2-yl)methoxy)ethanone] were 98.6% and 92.8%.
The matching figures for `COc1cc(C)c(S(=O)(=O)N2CCCC2COCC(=O)N2CCN(C)CC2c2ccccc2)c(C)c1` (centres unmarked) [Example 445, 2-((1-(4-methoxy-2,6-dimethylphenylsulfonyl)pyrrolidin-2-yl)methoxy)-1-(4-methyl-2-phenylpiperazin-1-yl)ethanone]: 98.6% and 102%.
`COc1cc(C)c(S(=O)(=O)N2CCCC2COCC(=O)N(C)C(CN2CCN(C)CC2)c2ccccc2)c(C)c1` (centres unmarked) [Example 446, 2-((1-(4-methoxy-2,6-dimethylphenylsulfonyl)pyrrolidin-2-yl)methoxy)-N-methyl-N-(2-(4-methylpiperazin-1-yl)-1-phenylethyl)acetamide]: the values for the inhibition at 10 µM in test [1] and in test [2] were 99.8% and 95%, respectively.
Turning to `COc1cc(C)c(S(=O)(=O)N2CCCC2COCC(=O)N2CCCC2Cc2ccccn2)c(C)c1` (centres unmarked) [Example 447, 2-((1-(4-methoxy-2,6-dimethylphenylsulfonyl)pyrrolidin-2-yl)methoxy)-1-(2-(pyridin-2-ylmethyl)pyrrolidin-1-yl)ethanone], the figures for the inhibition at 10 µM in test [1] and in test [2] were 94.2% and 66.5%, respectively.
Regarding `COc1cc(C)c(S(=O)(=O)N2CCCC2COCC(=O)N2CCCC2Cc2cccc(C)n2)c(C)c1` (centres unmarked) [Example 448, 2-((1-(4-methoxy-2,6-dimethylphenylsulfonyl)pyrrolidin-2-yl)methoxy)-1-(2-((6-methylpyridin-2-yl)methyl)pyrrolidin-1-yl)ethanone], the values for the inhibition at 10 µM in test [1] and in test [2] were 99.8% and 85.8%, respectively.
Taken in the same sequence, the figures for `COc1cc(C)c(S(=O)(=O)N2CCCC2COCC(=O)N2CCCCC2Cc2ccccn2)c(C)c1` (centres unmarked) [Example 449, 2-((1-(4-methoxy-2,6-dimethylphenylsulfonyl)pyrrolidin-2-yl)methoxy)-1-(2-(pyridin-2-ylmethyl)piperidin-1-yl)ethanone] were 99.7% and 90.8%.
The matching figures for `COc1cc(C)c(S(=O)(=O)N2CCCC2COCC(=O)N(C)C(CN2CCCC2)c2ccccc2)c(C)c1` (centres unmarked) [Example 450, 2-((1-(4-methoxy-2,6-dimethylphenylsulfonyl)pyrrolidin-2-yl)methoxy)-N-methyl-N-(1-phenyl-2-(pyrrolidin-1-yl)ethyl)acetamide]: 99.7% and 87.4%.
As to `COc1ccc(CN2CCN(C(=O)COCC3CCCN3S(=O)(=O)c3c(Cl)cccc3Cl)CC2)cc1` (centres unmarked) [Example 451, 2-((1-(2,6-dichlorophenylsulfonyl)pyrrolidin-2-yl)methoxy)-1-(4-(4-methoxybenzyl)piperazin-1-yl)ethanone], the inhibition at 10 µM in test [1] is 99.2%; in test [2], 80.7%.
For the molecule `CN(C)CCN1CCN(C(=O)COCC2CCCN2S(=O)(=O)c2c(Cl)cccc2Cl)CC1` (centres unmarked) [Example 452, 2-((1-(2,6-dichlorophenylsulfonyl)pyrrolidin-2-yl)methoxy)-1-(4-(2-(dimethylamino)ethyl)piperazin-1-yl)ethanone], the inhibition at 10 µM in test [1] amounted to 95.2%; in test [2], 105%.
Taken in the same sequence, the figures for `O=C(COCC1CCCN1S(=O)(=O)c1c(Cl)cccc1Cl)N1CCCCC1Cc1ccncc1` (centres unmarked) [Example 453, 2-((1-(2,6-dichlorophenylsulfonyl)pyrrolidin-2-yl)methoxy)-1-(2-(pyridin-4-ylmethyl)piperidin-1-yl)ethanone] were 74.4% and 40.5%.
Turning to `O=C(COCC1CCCCN1S(=O)(=O)c1c(Cl)cccc1Cl)N1CCN(Cc2ccccc2F)CC1` (centres unmarked) [Example 454, 2-((1-(2,6-dichlorophenylsulfonyl)piperidin-2-yl)methoxy)-1-(4-(2-fluorobenzyl)piperazin-1-yl)ethanone], the inhibition at 10 µM in test [1] amounted to 100%; in test [2] it was 102%.
Taken in the same sequence, the figures for `CN1CCN(C(=O)COCC2CCCCN2S(=O)(=O)c2c(Cl)cccc2Cl)C(c2ccccc2)C1` (centres unmarked) [Example 455, 2-((1-(2,6-dichlorophenylsulfonyl)piperidin-2-yl)methoxy)-1-(4-methyl-2-phenylpiperazin-1-yl)ethanone] were 99.3% and 103%.
The matching figures for `O=C(COCC1CCCCN1S(=O)(=O)c1c(Cl)cccc1Cl)N1CCCC1Cc1ccccn1` (centres unmarked) [Example 456, 2-((1-(2,6-dichlorophenylsulfonyl)piperidin-2-yl)methoxy)-1-(2-(pyridin-2-ylmethyl)pyrrolidin-1-yl)ethanone]: 101% and 100%.
Taken in the same sequence, the figures for `Cc1cc(C)nc(CC2CCCN2C(=O)COCC2CCCCN2S(=O)(=O)c2c(Cl)cccc2Cl)c1` (centres unmarked) [Example 457, 2-((1-(2,6-dichlorophenylsulfonyl)piperidin-2-yl)methoxy)-1-(2-((4,6-dimethylpyridin-2-yl)methyl)pyrrolidin-1-yl)ethanone] were 99.7% and 102%.
